Among the data in patent US10000483B2, “Bone marrow on X chromosome kinase (BMX) inhibitors and uses thereof” (Dana-Farber Cancer Institute, Inc., priority 2012, dated 2018) are IC50 and EC50 values, retold here.

Where “and” joins values, the source holds several entries; their conditions need not be identical. Identical values can stand only once.

For assay [1], the target named is BMX (Homo sapiens (Human), UniProt P51813). The assay can be described thus: Invitrogen Select Screening in vitro kinase assay. The format is biochemical.
Sequence of BMX (P51813 whole entry): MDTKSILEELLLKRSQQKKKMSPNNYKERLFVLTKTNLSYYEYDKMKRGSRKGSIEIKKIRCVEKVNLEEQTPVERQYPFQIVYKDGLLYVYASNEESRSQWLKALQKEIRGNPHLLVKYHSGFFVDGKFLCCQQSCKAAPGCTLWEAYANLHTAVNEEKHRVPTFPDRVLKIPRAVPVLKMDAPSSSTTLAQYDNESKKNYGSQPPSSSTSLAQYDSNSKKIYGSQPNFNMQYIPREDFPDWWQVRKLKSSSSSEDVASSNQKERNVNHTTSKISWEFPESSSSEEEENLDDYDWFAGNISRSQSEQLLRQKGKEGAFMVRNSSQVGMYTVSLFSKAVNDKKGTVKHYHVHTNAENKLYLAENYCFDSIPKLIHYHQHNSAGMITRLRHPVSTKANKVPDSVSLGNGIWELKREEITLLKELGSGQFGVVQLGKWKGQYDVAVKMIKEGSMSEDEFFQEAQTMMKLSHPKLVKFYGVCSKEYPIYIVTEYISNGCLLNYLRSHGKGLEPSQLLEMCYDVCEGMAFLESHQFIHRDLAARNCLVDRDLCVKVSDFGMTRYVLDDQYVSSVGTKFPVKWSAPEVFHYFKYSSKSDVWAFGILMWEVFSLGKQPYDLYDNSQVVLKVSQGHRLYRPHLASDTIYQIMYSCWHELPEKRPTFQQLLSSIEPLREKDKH
Assay [2] concerns the target BTK (Homo sapiens (Human), UniProt Q06187). As to the kind of experiment: Invitrogen Select Screening in vitro kinase assay. In kind it is biochemical.
The target of assay [3] is BLK (Homo sapiens (Human), UniProt P51451). The assay can be described thus: Invitrogen Select Screening in vitro kinase assay. In kind it is biochemical. From the text: (§1) The in vitro activity of compounds of Formula (I) and (II) in inhibiting BMX and other kinases were obtained using an Invitrogen Select Screening assay as known in the art. The IC50 values determined from this assay are shown below.
Sequence of BLK (P51451 whole entry): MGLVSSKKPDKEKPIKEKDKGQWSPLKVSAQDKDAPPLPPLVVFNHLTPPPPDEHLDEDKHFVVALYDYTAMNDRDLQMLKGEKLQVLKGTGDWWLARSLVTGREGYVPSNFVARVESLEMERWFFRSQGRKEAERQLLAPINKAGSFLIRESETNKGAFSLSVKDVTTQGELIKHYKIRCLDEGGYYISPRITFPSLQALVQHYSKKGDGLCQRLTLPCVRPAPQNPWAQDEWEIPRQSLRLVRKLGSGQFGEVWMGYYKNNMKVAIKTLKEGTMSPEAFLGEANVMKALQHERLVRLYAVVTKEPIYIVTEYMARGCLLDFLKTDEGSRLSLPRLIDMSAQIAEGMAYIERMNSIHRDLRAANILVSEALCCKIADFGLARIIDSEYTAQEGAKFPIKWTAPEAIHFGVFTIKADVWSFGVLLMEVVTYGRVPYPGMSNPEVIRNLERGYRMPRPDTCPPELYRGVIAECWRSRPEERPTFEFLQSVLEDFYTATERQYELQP

Assay [4] concerns the target mTOR (Homo sapiens (Human), UniProt P42345). The assay can be described thus: Invitrogen Select Screening in vitro kinase assay. The format is biochemical.
Excerpt: as §1

Assay [5] concerns BCWM.1 cells. As to the kind of experiment: Cell proliferation analysis for WM and lymphoma cell lines (CellTiter-Glo). In kind it is cell-based. The settings on record: BCWM1; 72 hours.
For assay [6], the system named is MWCL-1 cells. The description is as above. In kind it is cell-based. The note with it: 72 hours.
Assay [7] concerns OCI-Ly3 cells. Described as above. In kind it is cell-based. The note with it: Homo sapiens, 72 hours.
For assay [8], the system named is Ramos cells. Described as above. The note with it: Homo sapiens, 72 hours. In kind it is cell-based.
The subject of assay [9] is OCI-Ly19 cells. Described as above. The format is cell-based. The note with it: Homo sapiens, 72 hours.
In assay [10] the target is JAK3 (Homo sapiens (Human), UniProt P52333). The assay can be described thus: Invitrogen Select Screening in vitro kinase assay. In kind it is biochemical.
Sequence of JAK3 (P52333 whole entry): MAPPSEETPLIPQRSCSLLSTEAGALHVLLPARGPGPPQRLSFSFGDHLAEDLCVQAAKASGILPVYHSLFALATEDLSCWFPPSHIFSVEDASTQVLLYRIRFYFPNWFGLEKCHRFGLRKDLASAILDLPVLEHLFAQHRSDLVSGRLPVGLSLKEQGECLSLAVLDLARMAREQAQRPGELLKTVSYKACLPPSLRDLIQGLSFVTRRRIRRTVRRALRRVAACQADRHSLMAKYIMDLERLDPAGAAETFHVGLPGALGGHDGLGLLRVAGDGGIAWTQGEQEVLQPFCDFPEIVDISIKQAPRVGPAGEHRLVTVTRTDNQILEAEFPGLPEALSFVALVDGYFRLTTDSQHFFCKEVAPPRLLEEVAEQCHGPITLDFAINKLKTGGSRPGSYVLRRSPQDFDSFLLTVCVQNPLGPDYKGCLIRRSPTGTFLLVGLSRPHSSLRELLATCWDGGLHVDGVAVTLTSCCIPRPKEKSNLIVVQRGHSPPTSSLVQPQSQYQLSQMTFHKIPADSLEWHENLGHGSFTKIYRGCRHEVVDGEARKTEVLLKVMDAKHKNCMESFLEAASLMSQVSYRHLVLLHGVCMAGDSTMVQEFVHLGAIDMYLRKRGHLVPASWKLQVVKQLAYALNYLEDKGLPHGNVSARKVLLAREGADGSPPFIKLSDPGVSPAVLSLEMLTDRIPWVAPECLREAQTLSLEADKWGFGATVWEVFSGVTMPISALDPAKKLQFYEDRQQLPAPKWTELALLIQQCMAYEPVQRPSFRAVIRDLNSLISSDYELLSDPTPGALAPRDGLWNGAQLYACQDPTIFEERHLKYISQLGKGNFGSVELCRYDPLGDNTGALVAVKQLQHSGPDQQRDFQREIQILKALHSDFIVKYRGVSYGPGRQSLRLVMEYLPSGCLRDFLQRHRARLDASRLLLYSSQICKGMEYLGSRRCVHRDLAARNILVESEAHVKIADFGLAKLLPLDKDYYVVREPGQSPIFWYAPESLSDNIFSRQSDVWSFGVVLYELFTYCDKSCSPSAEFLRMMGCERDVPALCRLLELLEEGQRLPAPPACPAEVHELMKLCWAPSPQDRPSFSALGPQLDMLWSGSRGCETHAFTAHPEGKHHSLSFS
In assay [11] the test system is PRCIWM-1 cells. The assay can be described thus: Cell proliferation analysis for WM and lymphoma cell lines (CellTiter-Glo). The note with it: 72 hours. The format is cell-based. As to the method:
CellTiter-Glo® Luminescent cell viability assay (Promega) was used to assess cell survival following treatment with an inhibitor compound of Formula (I) or (II) (e.g., 1-14). Various cell lines were used including Waldenström's macroglobulinemia (WM) cell lines (BCWM.1, MWCL-1, RPCI-WM1) and B-cell lymphoma cell lines (OCI-Ly3, Ramos, OCI-Ly19). Cells were seeded into 384 well plates with the EL406 Combination Washer Dispenser (BioTek Instruments, Inc.) and inhibitor compounds were injected into the cells culture media with the JANUS Automated Workstation (PerkinElmer Inc.). Cells were treated with a series diluted inhibitor compounds (20˜0.04 μM) for 72 hours at 37° C. Luminescent measurement is performed using the 2104 Envision® Multilabel Reader (PerkinElmer Inc.).

Sequence of BTK (Q06187 whole entry): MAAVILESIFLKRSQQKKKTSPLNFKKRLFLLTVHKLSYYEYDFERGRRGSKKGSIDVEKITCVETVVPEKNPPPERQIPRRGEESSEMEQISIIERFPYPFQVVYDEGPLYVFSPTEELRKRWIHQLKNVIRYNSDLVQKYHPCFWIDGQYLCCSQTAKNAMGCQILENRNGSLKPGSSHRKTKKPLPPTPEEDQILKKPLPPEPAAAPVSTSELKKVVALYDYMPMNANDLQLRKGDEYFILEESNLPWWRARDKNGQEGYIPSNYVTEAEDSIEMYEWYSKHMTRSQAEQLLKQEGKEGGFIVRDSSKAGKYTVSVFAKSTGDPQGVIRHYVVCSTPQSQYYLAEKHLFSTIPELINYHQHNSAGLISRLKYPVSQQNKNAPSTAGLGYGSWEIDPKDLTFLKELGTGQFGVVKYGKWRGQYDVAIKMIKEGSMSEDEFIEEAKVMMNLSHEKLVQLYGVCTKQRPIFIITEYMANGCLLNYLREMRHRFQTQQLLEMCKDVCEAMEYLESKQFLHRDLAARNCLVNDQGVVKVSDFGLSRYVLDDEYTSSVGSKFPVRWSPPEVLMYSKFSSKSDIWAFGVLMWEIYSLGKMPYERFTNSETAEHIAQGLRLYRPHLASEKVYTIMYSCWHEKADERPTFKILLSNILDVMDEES

By IC50 is commonly meant the midpoint of a concentration-inhibition curve. Low readings indicate greater potency, high ones weaker potency. As usually defined, the EC50 is the concentration giving half of the maximal effect. `C=CC(=O)Nc1cc(-n2c(=O)ccc3cnc4ccc(-c5ccccc5)cc4c32)ccc1C` [I-7]: the IC50 in [1] was 15.9 nM and 16 nM; in [2], 25 nM; in [3], 250 nM; in [4], 210 nM. The EC50 in [5] turned out to be 180 nM; in assay [6], 950 nM; in assay [7], 380 nM; in [8] it was 310 nM; in [9] it was 10 nM.

Take `C=CC(=O)Nc1cc(-n2c(=O)ccc3cnc4ccc(-c5ccc(NC(=O)NC)cc5)cc4c32)ccc1C` [I-8]: the IC50 in assay [1] was 40.6 nM; in [2] it was 66 nM; in assay [10], 4170 nM.

Regarding `C=CC(=O)N1CCc2ccc(-n3c(=O)ccc4cnc5ccc(-c6ccc(C(=O)NC)cc6F)cc5c43)cc21` [I-9], in assay [2], the IC50 was 54 nM.

With `C=CC(=O)N1CCc2ccc(-n3c(=O)ccc4cnc5ccc(-c6ccc(COc7cccc(C(F)(F)F)c7)cc6)cc5c43)cc21` [I-10], the IC50 was greater than 10000 nM in [1] and 1060 nM in assay [2]. Further, the EC50 in assay [5] came out at 2120 nM; in [6], 5750 nM; in [7], 3660 nM; in assay [8] it was 3770 nM; in assay [9], 290 nM.

`C=CC(=O)N1CCc2ccc(-n3c(=O)ccc4cnc5ccc(-c6ccc(S(=O)(=O)NC(C)(C)C)cc6)cc5c43)cc21` [I-11]: the half-maximal inhibitory concentration (IC50) was 18.1 nM and 18 nM in assay [1]; 11 nM in assay [2]; 536 nM in [4].

For the compound `C=CC(=O)Nc1cc(-n2c(=O)ccc3cnc4ccc(-c5ccc(COc6cccc(C(F)(F)F)c6)cc5)cc4c32)ccc1C` [I-13], the IC50 was 18.1 nM and 28 nM in [1]; 37 nM in [2].

For the compound `C=CC(=O)Nc1cc(-n2c(=O)ccc3cnc4ccc(-c5ccc(C(N)=O)cc5)cc4c32)ccc1C` [I-15], the IC50 in assay [2] amounted to 79 nM.

Take `C=CC(=O)Nc1cc(-n2c(=O)ccc3cnc4ccc(/C=C/c5ccccc5)cc4c32)ccc1C` [I-16]: the IC50 was 27.8 nM and 28 nM in [1]; 105 nM in assay [2]. For the same compound, the EC50 in assay [5] was 490 nM; in [6], 1780 nM; in assay [7], 1120 nM; in [8], 420 nM; in [9], 80 nM.

`C=CC(=O)N1CCc2ccc(-n3c(=O)ccc4cnc5ccc(-c6ccc(N7CCN(C)CC7)cc6)cc5c43)cc21` [I-17]: the IC50 came to 399 nM in [1], 155 nM in assay [2], 516 nM in assay [4] and 5580 nM in [10]. In addition, the EC50 in assay [5] is 490 nM; in [6], 1780 nM; in [7], 1120 nM; in assay [8], 420 nM; in [9], 80 nM.

Take `C=CC(=O)Nc1cc(-n2c(=O)ccc3cnc4ccc(-c5ccc6c(c5)OCCO6)cc4c32)ccc1C` [I-18]: the IC50 in [1] is 13.3 nM and 13 nM; in assay [2], 16 nM; in assay [4], 642 nM.

`C=CC(=O)Nc1cc(-n2c(=O)ccc3cnc4ccc(-c5ccc6occc6c5)cc4c32)ccc1C` [I-20]: the EC50 in assay [5] was 1020 nM; in assay [6] it was 798 nM; in assay [7] it was 1100 nM; in [8], 602 nM; in assay [9] it was greater than 20000 nM.

As to `C=CC(=O)Nc1cc(-n2c(=O)ccc3cnc4ccc(-c5ccc6ccncc6c5)cc4c32)ccc1C` [I-21], the EC50 is 93 nM in [5]; 56 nM in assay [6]; 109 nM in assay [7]; 57 nM in [8]; 90 nM in assay [9].

For `C=CC(=O)Nc1cc(-n2c(=O)ccc3cnc4ccc(-c5ccc6[nH]ncc6c5)cc4c32)ccc1C` [I-22], the EC50 in assay [5] amounted to 203 nM; in assay [6], 117 nM; in assay [7], 180 nM; in [8], 91 nM; in [9] it was 51 nM.

As to `C=CC(=O)Nc1cc(-n2c(=O)ccc3cnc4ccc(-c5ccc6c(c5)OCO6)cc4c32)ccc1C` [I-23], the EC50 amounted to 849 nM in assay [5]; 610 nM in assay [6]; 1170 nM in assay [7]; 653 nM in [8]; 19 nM in assay [9].

For the compound `C=CC(=O)Nc1cc(-n2c(=O)ccc3cnc4ccc(-c5ccc6ocnc6c5)cc4c32)ccc1C` [I-24], the EC50 in assay [5] was found to be 345 nM; in assay [6] it was 284 nM; in assay [7] it was 516 nM; in assay [8], 355 nM; in [9], 24 nM.

For the compound `C=CC(=O)Nc1cc(-n2c(=O)ccc3cnc4ccc(Nc5ccc6ccncc6c5)cc4c32)ccc1C` [I-26], the EC50 in assay [5] amounted to 3580 nM; in assay [6], 6820 nM; in [11], 663 nM; in [7], 3340 nM; in [8], 3830 nM; in assay [9], 659 nM.

For the compound `C=CC(=O)Nc1cc(-n2c(=O)ccc3cnc4ccc(Nc5ccc6cnccc6c5)cc4c32)ccc1C` [I-27], the EC50 was determined as 1350 nM in assay [5]; 9150 nM in assay [6]; 345 nM in [11]; 2590 nM in [7]; 6280 nM in assay [8]; 374 nM in [9].

For `C=CC(=O)Nc1cc(-n2c(=O)ccc3cnc4ccc(Nc5ccc6cccnc6c5)cc4c32)ccc1C` [I-28], the EC50 in assay [5] turned out to be 4440 nM; in assay [6] it was 7490 nM; in assay [11], 691 nM; in assay [7], 3590 nM; in assay [8], 3430 nM; in assay [9], 1050 nM.

As to `C=CC(=O)Nc1cc(-n2c(=O)ccc3cnc4ccc(Nc5ccc6ncccc6c5)cc4c32)ccc1C` [I-29], the EC50 in assay [5] was 2200 nM; in assay [6] it was 7290 nM; in assay [11], 528 nM; in [7] it was 3080 nM; in assay [8] it was 2570 nM; in assay [9] it was 390 nM.

For the compound `C=CC(=O)Nc1cc(-n2c(=O)ccc3cnc4ccc(-c5cnn(C)c5)cc4c32)ccc1C` [II-3], the IC50 in assay [1] was 8.16 nM and 8 nM; in assay [2], 14 nM; in assay [4] it was 173 nM.

Turning to `C=CC(=O)Nc1cc(-n2c(=O)ccc3cnc4ccc(-c5ccc(N)nc5)cc4c32)ccc1C` [II-5], the IC50 in assay [1] is 12.9 nM and 13 nM; in assay [2], 16 nM; in assay [4] it was 17 nM. For the same compound, the EC50 in assay [5] is 643 nM; in [6], 1550 nM; in assay [11], 86 nM; in assay [7] it was 408 nM; in [8] it was 872 nM; in assay [9] it was 454 nM.

Take `C=CC(=O)Nc1cccc(-n2c(=O)ccc3cnc4ccc(-c5ccc(N)nc5)cc4c32)c1` [II-7]: the IC50 in assay [1] was 15.7 nM and 16 nM; in [2] it was 19 nM; in [4], 19 nM.

For `C=CC(=O)Nc1cccc(-n2c(=O)ccc3cnc4ccc(-c5cn[nH]c5)cc4c32)c1` [II-8], the IC50 in assay [1] was 10.5 nM and 11 nM; in assay [2], 18 nM; in [4] it was 41 nM.

As to `C=CC(=O)Nc1cc(-n2c(=O)ccc3cnc4ccc(-c5ccsc5)cc4c32)ccc1C` [II-9], the 50% inhibitory concentration (IC50) is 19.7 nM and 20 nM in [1]; 39 nM in assay [2]; 369 nM in [4].

Turning to `C=CC(=O)Nc1cc(-n2c(=O)ccc3cnc4ccc(-c5ccoc5)cc4c32)ccc1C` [II-10], the IC50 in assay [1] is 12.1 nM and 12 nM; in assay [2] it was 17 nM; in assay [4], 4790 nM; in [10], 492 nM. Moreover, the EC50 in assay [5] came out at 410 nM; in assay [6], 2160 nM; in assay [7], 480 nM; in [8], 280 nM; in [9], 70 nM.

With `C=CC(=O)Nc1cc(-n2c(=O)ccc3cnc4ccc(-c5cccnc5)cc4c32)ccc1C` [II-11], the IC50 in assay [1] is 66.1 nM and 66 nM; in [2] it was 115 nM; in assay [3], 1950 nM; in [4] it was 1 nM; in [10], 1520 nM. Also, the EC50 worked out at 190 nM in assay [5]; 670 nM in assay [6]; 240 nM in [7]; 200 nM in assay [8]; 90 nM in assay [9].

For `C=CC(=O)N1CCc2ccc(-n3c(=O)ccc4cnc5ccc(-c6cnc7ccccc7c6)cc5c43)cc21` [II-12], the IC50 in assay [1] is 5.62 nM and 6 nM; in assay [2], 7 nM; in [4], 59 nM.

On to `C=CC(=O)N1CCc2ccc(-n3c(=O)ccc4cnc5ccc(-c6cnc(N)cc6C(F)(F)F)cc5c43)cc21` [II-15], for which, in assay [2], the IC50 was 337 nM.

Turning to `C=CC(=O)Nc1cc(-n2c(=O)ccc3cnc4ccc(-c5cnc6ccccc6c5)cc4c32)ccc1C` [II-16], the half-maximal inhibitory concentration (IC50) in assay [1] was 18.5 nM and 19 nM; in assay [2], 25 nM; in [4], 32 nM.

As for `C=CC(=O)Nc1cc(-n2c(=O)ccc3cnc4ccc(-c5cnn(S(=O)(=O)c6ccccc6)c5)cc4c32)ccc1C` [II-23], the EC50 in assay [5] worked out at 643 nM; in assay [6] it was 1550 nM; in [11] it was 86 nM; in assay [7] it was 408 nM; in [8], 872 nM; in assay [9], 454 nM.
